Data set [1] has as its target T1, KDR (Homo sapiens, UniProt P35968).
T1 construct: expressed in transfected cells; host or cells: NIH3T3
The experiment in a line: (125I)-VEGF binding inhibition on NIH3T3 cells in which KDR was forced to be expressed. The note with it: KDR-expressing NIH3T3 cells, (125I)-VEGF 25 pM, 90 minutes, read-out: IC50 (concentration of 50% binding inhibition). The method, then: According to the method described in a document (Cell Growth & Differentiation, vol. 7, pp. 213-221, 1996), the following tests were carried out.
NIH3T3 cells in which Flt-1 was forced to be expressed were seeded on a 24-well collagen-coated plate (7×10^4/well), and were cultured in Dulbecco's modified Eagle's medium (DMEM) including 10% bovine serum and 200 μg/ml of Geneticin G418, for 24 hours at 37° C. under an atmosphere of 5% carbon dioxide gas. The cells were preincubated in Buffer A (including 10 mM HEPES (N-2-hydroxyethylpiperazine-N′-2-ethanesulfonic acid) and 0.1% BSA (bovine serum albumin) in DMEM), for 30 minutes at 4° C. Subsequently, the medium was replaced with Buffer B (including 10 mM HEPES and 0.5% BSA in DMEM). A test solution prepared by dissolving each of the test compounds shown in Table 19 in dimethylsulfoxide and subsequently diluting the solution into a prescribed concentration with Buffer B, and (^125I)-VEGF (the final concentration was set to 25 pM) were added thereto. Binding reaction was carried out for 90 minutes at […]. After completion of the reaction, the cells were washed three times with ice-cooled Buffer A. Subsequently, 0.5 ml of 0.5M NaOH were added to each well, and the cells were lysed in 30 minutes at room temperature. The radioactivity of the lysed cells in each well was measured by means of a gamma counter, and a total binding quantity of (^125I)-VEGF was calculated. Nonspecific binding quantity of (^125I)-VEGF was measured by competition assay in the presence of 10 nM non-labeled VEGF. The specific binding quantity of (^125I)-VEGF was calculated from the difference between the total binding quantity of (^125I)-VEGF and nonspecific binding quantity of (^125I)-VEGF.
The binding inhibition index of the test compounds was calculated by the following equation. [formula]
From this value, a concentration of 50% binding inhibition (IC50) of the test compound was calculated.
Test on each of the test compounds shown in Table 20 and Table 21 was carried out employing NIH3T3 cells in which KDR was forced to be expressed, in the same manner as described in Experimental Example 1 described above.

Where two headings read alike, the source gives them in different places.

By melting point is commonly meant the temperature, or range, at which the solid turns liquid.

T1 sequence (P35968 20-1356): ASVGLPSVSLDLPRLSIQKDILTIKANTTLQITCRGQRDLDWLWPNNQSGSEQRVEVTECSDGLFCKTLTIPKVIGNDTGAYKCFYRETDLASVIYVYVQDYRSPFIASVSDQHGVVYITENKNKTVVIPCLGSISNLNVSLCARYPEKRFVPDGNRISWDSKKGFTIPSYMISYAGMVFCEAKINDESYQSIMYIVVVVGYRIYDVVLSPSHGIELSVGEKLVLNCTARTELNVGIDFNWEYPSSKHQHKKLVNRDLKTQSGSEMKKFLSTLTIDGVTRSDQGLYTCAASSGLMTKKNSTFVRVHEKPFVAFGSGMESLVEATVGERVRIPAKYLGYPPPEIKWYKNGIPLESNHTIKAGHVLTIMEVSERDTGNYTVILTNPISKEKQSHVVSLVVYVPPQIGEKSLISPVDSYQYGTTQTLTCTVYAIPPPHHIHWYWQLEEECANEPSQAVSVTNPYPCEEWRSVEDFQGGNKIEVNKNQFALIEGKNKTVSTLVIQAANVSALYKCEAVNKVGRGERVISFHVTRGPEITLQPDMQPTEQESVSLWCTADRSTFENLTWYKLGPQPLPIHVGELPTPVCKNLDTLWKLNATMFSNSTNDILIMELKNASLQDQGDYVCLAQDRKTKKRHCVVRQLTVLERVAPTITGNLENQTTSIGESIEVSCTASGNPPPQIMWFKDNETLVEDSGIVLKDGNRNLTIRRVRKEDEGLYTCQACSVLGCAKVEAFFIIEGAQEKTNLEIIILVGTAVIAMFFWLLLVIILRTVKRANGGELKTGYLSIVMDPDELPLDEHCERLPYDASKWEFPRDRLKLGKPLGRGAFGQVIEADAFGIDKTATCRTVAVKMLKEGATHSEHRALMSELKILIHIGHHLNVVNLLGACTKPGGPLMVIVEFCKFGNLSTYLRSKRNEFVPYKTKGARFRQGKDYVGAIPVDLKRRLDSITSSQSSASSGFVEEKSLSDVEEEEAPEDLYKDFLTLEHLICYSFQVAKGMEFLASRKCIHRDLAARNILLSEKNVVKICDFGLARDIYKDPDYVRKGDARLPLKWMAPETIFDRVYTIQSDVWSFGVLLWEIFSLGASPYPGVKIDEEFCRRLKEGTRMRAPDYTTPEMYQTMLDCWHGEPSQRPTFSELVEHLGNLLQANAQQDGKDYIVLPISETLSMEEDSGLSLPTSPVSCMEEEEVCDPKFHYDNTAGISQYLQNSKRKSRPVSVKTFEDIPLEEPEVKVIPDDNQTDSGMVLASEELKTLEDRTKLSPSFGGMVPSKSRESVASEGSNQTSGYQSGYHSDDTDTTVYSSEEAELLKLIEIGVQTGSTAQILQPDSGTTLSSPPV

The molecule `CCCCCCCCCCCCCCCCCCOc1ccc(CCC(=O)N(C)c2ccc(Oc3ccc(C(=O)OC)cc3)c(C(=O)OC)c2)cc1` [Compound 22] returned a melting point of 60 to 62 °C.

Turning to `CCCCCCCCCCCCCCCCCCOc1ccc(CCC(=O)Nc2ccc(Oc3ccccc3C(=O)O)c(C(=O)O)c2)cc1` [Compound 29], the melting point lay in the range of 184 to 186 °C. In data set [1] (Table 20), the IC50 amounted to 1190 nM.

The molecule `CCCCCCCCCCCCCCCCCCOc1ccc(CCC(=O)Nc2ccc(Oc3ccc(CC(=O)O)cc3)c(C(=O)O)c2)cc1` [Compound 31] displayed a melting point of 170 to 173 °C. The IC50 in data set [1] (Table 20) was 1230 nM.

As to `CCCCCCCCCCCCCCCCCCOc1ccc(CCC(=O)Nc2ccc(Oc3cccc(CC(=O)O)c3)c(C(=O)O)c2)cc1` [Compound 32], the melting point lay within 163 to 167 °C. Besides, the IC50 in data set [1] (Table 20) turned out to be 930 nM.

`CCCCCCCCCCCCCCCCCCOc1ccc(CCC(=O)Nc2ccc(Oc3ccc(CCC(=O)O)cc3)c(C(=O)O)c2)cc1` [Compound 33] came in with a melting point of 156 to 160 °C. For the same molecule, the IC50 in data set [1] (Table 20) is 260 nM.

In the case of `CCCCCCCCCCCCCCCCCCOc1ccc(CCC(=O)Nc2ccc(Oc3ccc(/C=C/C(=O)O)cc3)c(C(=O)O)c2)cc1` [Compound 34], the melting point was 200 to 208 °C. In data set [1] (Table 20), the IC50 was found to be 340 nM.

In the case of `CCCCCCCCCCCCCCCCCCOc1ccc(CCC(=O)Nc2ccc(Oc3ccc4cc(C(=O)O)ccc4c3)c(C(=O)O)c2)cc1` [Compound 35], the melting point was 215 to 225 °C. Moreover, the IC50 in data set [1] (Table 20) came to 200 nM.

Molecule `CCCCCCCCCCCCCCCCCCOc1ccc(CCC(=O)Nc2cc(C(=O)O)ccc2Oc2cccc(C(=O)O)c2)cc1` [Compound 36] showed a melting point of 212 to 216 °C. The IC50 in data set [1] (Table 20) was 1270 nM.

`CCCCCCCCCCCCCCCCCCOc1ccc(CCC(=O)Nc2cc(C(=O)O)ccc2Oc2ccc3cc(C(=O)O)ccc3c2)cc1` [Compound 38] registered a melting point of 214 to 219 °C. Also, the IC50 in data set [1] (Table 20) amounted to 710 nM.

In turn, `CCCCCCCCCCCCCCCCCCOc1ccc(CCC(=O)Nc2ccc(Sc3ccc(C(=O)O)cc3)c(C(=O)O)c2)cc1` [Compound 41] had a melting point of 198 to 203 °C. Besides, the IC50 in data set [1] (Table 20) came out at 370 nM.

For `CCCCCCCCCCCCCCCCCCOc1ccc(CCC(=O)Nc2ccc(Sc3cccc(C(=O)O)c3)c(C(=O)O)c2)cc1` [Compound 42], the melting point was in the range of 194 to 198 °C. Besides, the IC50 in data set [1] (Table 20) worked out at 450 nM.

`CCCCCCCCCCCCCCCCCCOc1ccc(CCC(=O)Nc2cc(C(=O)O)ccc2Sc2cccc(C(=O)O)c2)cc1` [Compound 43] registered a melting point of 246 to 248 °C. Moreover, the IC50 in data set [1] (Table 20) was determined as 660 nM.

`CCCCCCCCCCCCCCCCCCOc1ccc(CCC(=O)Nc2ccc(Sc3ccc(C(=O)O)cn3)c(C(=O)O)c2)cc1` [Compound 44] gave a melting point of 221 to 223 °C. Moreover, in data set [1] (Table 20), the IC50 was 910 nM.

Regarding `CCCCCCCCCCCCCCCCCCOc1ccc(CCC(=O)Nc2ccc(Nc3ccc(C(=O)O)cc3)c(C(=O)O)c2)cc1` [Compound 45], the melting point fell in the range of 230 to 235 °C. The IC50 in data set [1] (Table 20) amounted to 760 nM.

As for `CCCCCCCCCCCCCCCCCCOc1ccc(CCC(=O)Nc2ccc(Nc3cccc(C(=O)O)c3)c(C(=O)O)c2)cc1` [Compound 46], the melting point lay in the range of 235 to 240 °C. Besides, the IC50 in data set [1] (Table 20) turned out to be 400 nM.

On to `CCCCCCCCCCCCCCCCCCOc1ccc(CCC(=O)Nc2ccc(Nc3ccccc3C(=O)O)c(C(=O)O)c2)cc1` [Compound 47], for which the melting point is 247 to 252 °C. Besides, in data set [1] (Table 20), the IC50 stood at 940 nM.

Regarding `CCCCCCCCCCCCCCCCCCOc1ccc(CCC(=O)N(C)c2ccc(SC)c(C(=O)OC)c2)cc1` [Compound 90], the melting point lay within 65.5 to 66.5 °C.

`CCCCCCCCCCCCCCCCCCOc1ccc(CC(=O)N(C)c2ccc(SC)c(C(=O)OC)c2)cc1` [Compound 91] came in with a melting point of 60 to 69 °C.

Regarding `CCCCCCCCCCCCCCCCCCOc1ccc(CCC(=O)N(CC(=O)O)c2ccc(SC)c(C(=O)OC)c2)cc1` [Compound 102], the melting point was 102 to 106 °C.

`CCCCCCCCCCNC(=O)[C@H](CC(=O)O)NC(=O)CCCOc1ccc(CCC(=O)Nc2ccc(SC)c(C(=O)OC)c2)cc1` [Compound 105] showed a melting point of 165 to 167 °C.

`CCCCCCCCCCCCCCCCCCOc1ccc(CCC(=O)Nc2ccc([S+](C)[O-])c(C(=O)OC)c2)cc1` (centres unmarked) [Compound 106] showed a melting point of 65 to 67 °C.

As for `CCCCCCCCCCCCCCCCCCOc1ccc(CC(=O)N(C)c2ccc(SCCO)c(C(=O)OC)c2)cc1` [Compound 109], the melting point lay within 92.5 to 94 °C.

The molecule `CCCCCCCCCCCCCCCCCCOc1ccc(CCC(=O)Nc2ccc(SC)c(C(=O)O)c2)cc1` [Compound 115] yielded a melting point of 185 to 194 °C. Besides, in data set [1] (Table 21), the IC50 was determined as 150 nM.

`CCCCCCCCCCCCCCCCCCOc1ccc(CC(=O)Nc2ccc(SC)c(C(=O)O)c2)cc1` [Compound 116]: the melting point lay in the range of 200 to 204 °C. Moreover, the IC50 in data set [1] (Table 21) worked out at 160 nM.

In the case of `CCCCCCCCCCCCCCCCCCCCOc1ccc(CCC(=O)Nc2ccc(SC)c(C(=O)O)c2)cc1` [Compound 117], the melting point was in the range of 211 to 213 °C. Further, the IC50 in data set [1] (Table 21) came out at 320 nM.

The molecule `CCCCCCCCCCCCCCCCCCCCCCOc1ccc(CCC(=O)Nc2ccc(SC)c(C(=O)O)c2)cc1` [Compound 118] yielded a melting point of 209 to 212 °C. Further, in data set [1] (Table 21), the IC50 is 1580 nM.

In the case of `CCCCCCCCCCCCCCCCCCOc1ccc(CCC(=O)Nc2ccc(SC)c(C(=O)O)c2)cc1OC` [Compound 119], the melting point fell in the range of 174 to 176 °C. Further, the IC50 in data set [1] (Table 21) is 290 nM.

The molecule `CCCCCCCCCCCCCCCCCC(=O)Nc1ccc(CCC(=O)Nc2ccc(SC)c(C(=O)O)c2)cc1` [Compound 120] had a melting point of 257 to 260 °C. The IC50 in data set [1] (Table 21) was determined as 440 nM.

For the molecule `CCCCCCCCCCCCCCCCOc1ccc(CC(=O)Nc2ccc(SC)c(C(=O)O)c2)cc1` [Compound 127], the melting point lay within 200 to 205 °C. In addition, the IC50 in data set [1] (Table 21) is 1160 nM.

Turning to `CCCCCCCCCCCCCCCCCC(=O)Nc1ccc(CC(=O)Nc2ccc(SC)c(C(=O)O)c2)cc1` [Compound 130], the melting point was in the range of 214 to 217 °C. The IC50 in data set [1] (Table 21) was 230 nM.

`CCCCCCCCCCCCCCCCCC(=O)Nc1cccc(CC(=O)Nc2ccc(SC)c(C(=O)O)c2)c1` [Compound 131] showed a melting point of 224 to 228 °C. Also, the IC50 in data set [1] (Table 21) was 310 nM.

`CCCCCCCCCCCCCCCCCC(=O)Nc1ccccc1CC(=O)Nc1ccc(SC)c(C(=O)O)c1` [Compound 132]: the melting point fell in the range of 247 to 250 °C. Moreover, in data set [1] (Table 21), the IC50 was determined as 1660 nM.

Take `CCCCCCCCCCCCCCCCCCOc1ccc(OCC(=O)Nc2ccc(SC)c(C(=O)O)c2)cc1` [Compound 133]: the melting point is 165 to 169 °C. The IC50 in data set [1] (Table 21) is 160 nM.

As for `CCCCCCCCCCCCCCCCOc1ccc(OCCCC(=O)Nc2ccc(SC)c(C(=O)O)c2)cc1` [Compound 134], the melting point was in the range of 197 to 202 °C. The IC50 in data set [1] (Table 21) is 120 nM.

`CCCCCCCCCCCCCCOc1ccc(OCCCCCC(=O)Nc2ccc(SC)c(C(=O)O)c2)cc1` [Compound 135] registered a melting point of 199 to 202 °C. Besides, in data set [1] (Table 21), the IC50 is 450 nM.

On to `CCCCCCCCCCCCOc1ccc(OCCCCCCCC(=O)Nc2ccc(SC)c(C(=O)O)c2)cc1` [Compound 136], for which the melting point fell in the range of 193 to 196 °C. Moreover, in data set [1] (Table 21), the IC50 stood at 400 nM.

Take `CCCCCCCCCCOc1ccc(OCCCCCCCCCC(=O)Nc2ccc(SC)c(C(=O)O)c2)cc1` [Compound 137]: the melting point fell in the range of 185 to 188 °C. In data set [1] (Table 21), the IC50 was 460 nM.

On to `CCCCCCCCOc1ccc(OCCCCCCCCCCCC(=O)Nc2ccc(SC)c(C(=O)O)c2)cc1` [Compound 138], for which the melting point lay in the range of 180 to 185 °C. In addition, the IC50 in data set [1] (Table 21) is 430 nM.

Molecule `CCCCCCCCCCCCCCCCCCOc1ccc(CC(=O)Nc2ccc(SCC)c(C(=O)O)c2)cc1` [Compound 143] displayed a melting point of 149 to 153 °C. Further, in data set [1] (Table 21), the IC50 worked out at 760 nM.

In the case of `CCCCCCCCCCCCCCCCCCOc1ccc(CCC(=O)Nc2cc(C(=O)O)ccc2SC)cc1` [Compound 145], the melting point lay in the range of 216 to 219 °C. Also, the IC50 in data set [1] (Table 21) is 1290 nM.

As for `CCCCCCCCCCCCCCCCCCOc1ccc(CCC(=O)Nc2cc(C(=O)O)ccc2SCC)cc1` [Compound 146], the melting point is 174 to 177 °C. Besides, the IC50 in data set [1] (Table 21) was determined as 630 nM.

Molecule `CCCCCCCCCCCCCCCCCCOc1ccc(CCC(=O)Nc2cc(C(=O)O)ccc2SCCC)cc1` [Compound 147] returned a melting point of 150 to 152 °C. The IC50 in data set [1] (Table 21) came to 570 nM.
